From article PMC12741935 (Alzheimer's & Dementia, 2025)
Read-outs that look alike come from different tables or passages of the source.

How the values were obtained:
[1] = Plasma and brain NVS-PAK1-1 concentrations in 5xFAD mice; type: in vivo; settings: for concentration at 4 h: mouse, po, 100 mg/kg, 4 h after final dose
Description: Serial blood was collected from n = 3 per treatment group at 0.5, 1, 2, and 4 hours post dose; with terminal blood and brain collected at 4 hours post dose. A staggered cohort of n = 3 per treatment group were assigned to serial blood collections at 0.5, 1, 2, and 8 hours post dose with terminal blood and brain collected at 4 and 24 hours post dose. Informed by exposure data from the initial PK/PD study, a subsequent chronic PK/PD study was designed to evaluate twice daily treatment of 100 mg/kg (PO) in female and male 5xFAD mice compared to age‐ and sex‐matched vehicle‐treated 5xFAD and vehicle‐treated WT littermate controls (Table S2 in supporting information). Terminal blood and brain was collected at 4 hours after the final dose. […] All in vivo target engagement and PK/PD studies were conducted under blinded conditions for age, genotype, and treatment, and the blind was maintained until after analyses were conducted.
Drug concentrations were prepared immediately before dosing each day. The dose volume was delivered at 10 mL/kg based on each subject's daily weight collected just prior to the morning dose and administered via PO. For the chronic PD study, twice daily dosing (BID) was conducted between 7:00 and 9:00 am each morning and 3:00 to 5:00 pm each evening with the same day's formulation stored at 4°C between dosing intervals.
For serial blood sampling, 50 µL of blood was collected via the tail tip route into heparin‐coated glass capillary tubes (Drummond scientific # 1‐000‐7500‐C/5) in non‐anesthetized mice. For all terminal timepoints, tissue collection was conducted at 4 or 24 hours post dose for acute studies (Tables S1–S2) and 4 hours after the final dose administrated for chronic studies. Mice were anesthetized with isoflurane to the surgical plane of anesthesia. After decapitation, trunk blood was collected into heparin‐coated tubes for terminal PK analysis with the remaining trunk blood decanted into EDTA‐coated tubes for PD analysis. Blood was kept on ice until centrifugation (typically 20–60 minutes post collection), then centrifuged at 19745 g for 10 minutes at 4°C for PK samples and 20 minutes for PD samples (e.g., plasma Aβ40, Aβ42, neurofilament light chain [NfL]), followed by storage at −80°C until analysis. The brain was quickly removed from the skull, briefly rinsed in cold PBS, and divided sagittally at the midline into left and right hemispheres. The left hemisphere without cerebellum was quickly chopped and mixed into three equally aliquoted mixed parts then placed into three cold cryotubes. Cryotubes were immediately snap frozen on dry ice and stored at −80°C until analysis. The right hemisphere was maintained intact and immediately placed on dry ice and stored at −80°C until shipped to Stanford University for Golgi staining and morphological analyses.
For plasma samples, three volumes of acetonitrile containing internal standard was added to one volume of plasma, and centrifuged at 3000 g for 10 minute; then, the supernatant was removed and analyzed by LC‐MS/MS. Calibration standards and quality controls were prepared from a 1 mg/mL stock solution and subsequently a series of working solutions in methanol:water (1:1, v/v) that are spiked into blank plasma to yield a series of calibration standard samples in the range of 1 ng/mL to 10 µg/mL and QC samples at three concentration levels (low, middle, and high). All plasma samples were treated identically to the calibration standards and QC samples. For analysis of brain, one third of the left mixed‐chopped hemisphere was homogenized in three volumes of PBS buffer (pH 7.4; v/w = 3/1). Subsequently, three volumes of acetonitrile‐containing internal standard was added to one volume of each tissue homogenate, and the mixture was vortexed, centrifuged at 3000 g for 10 minutes, and supernatants were used for LC‐MS/MS.

[2] = Adverse event observation in CD-1 PK study; type: in vivo; settings: 10 mg/kg IP, CD-1 mice
Description: The dose volume was 10 mL/kg.

CC(C)NC(=O)N1CC[C@H](NC2=Nc3cc(F)ccc3N(CC(F)F)c3ccc(Cl)cc32)C1 [NVS‐PAK1‐1, (S)‐3‐([2‐chloro‐5‐(2,2‐difluoroethyl)‐8‐fluoro‐5H‐dibenzo[b,e][1,4]diazepin‐11‐yl]amino)‐N‐isopropylpyrrolidine‐1‐carboxamide] showed a concentration at 4 h ([1]; female, 5xFAD, brain, aged 5xFAD females, 100 mg/kg BID PO 31 days, read-out: brain concentration) of 58.3 ± 26.1 ng/g, a concentration at 4 h ([1]; female, 5xFAD, brain, young 5xFAD females, 100 mg/kg BID PO 12 weeks, read-out: mean brain concentration) of 44.9 ± 14.1 ng/g and a concentration at 4 h ([1]; female, 5xFAD, plasma, aged 5xFAD females, 100 mg/kg BID PO 31 days, read-out: plasma concentration) of 354 ± 138 ng/mL. The concentration at 4 h ([1]; female, 5xFAD, plasma, young 5xFAD females, 100 mg/kg BID PO 12 weeks, read-out: average plasma concentration) was 324 ± 104 ng/mL, the concentration at 4 h ([1]; male, 5xFAD, brain, aged 5xFAD males, 100 mg/kg BID PO 31 days, read-out: brain concentration) was 49.1 ± 17.6 ng/g and the concentration at 4 h ([1]; male, 5xFAD, brain, young 5xFAD males, 100 mg/kg BID PO 12 weeks, read-out: mean brain concentration) was 98.5 ± 34.4 ng/g. The concentration at 4 h ([1]; male, 5xFAD, plasma, aged 5xFAD males, 100 mg/kg BID PO 31 days, read-out: plasma concentration) was 140 ± 27.9 ng/mL, the concentration at 4 h ([1]; male, 5xFAD, plasma, young 5xFAD males, 100 mg/kg BID PO 12 weeks, read-out: average plasma concentration) was 309 ± 104 ng/mL and the “levels in brain or plasma” value ([1]; single PO dose 100 mg/kg, 24 hours post administration, 5xFAD) was “lack of detectable levels”. For the same compound, the brain concentration ([1]; single PO dose 10 or 50 mg/kg, 24 hours post dose, aged 5xFAD) was “BLOQ” and the adverse events [2] was “No adverse events were observed”.
